In patent publication US9273184B1, “Synthesis of highly fluorinated amines for use in polymers and biomaterials” (University of Southern California, priority 2009, dated 2016):
Structures can show the parent of a compound that is named as a salt.

Experiment: 31P NMR evidence for guanidinium-phosphonate binding (addition of amphiphile or comparator to MePO3K2)
Conditions: for change of the 31P signal of the phosphonate on addition (shift and broadening, in words): FIGS. 11A-D
Source text: Guanidinium binds to phosphonate through a salt bridge that is buttressed by a bidentate hydrogen bonding system FIG. 10. This interaction is generally stable within a wide range of pH values. Thus, guanidinium-functionalized amphiphiles (29a-c) should form complexes with phosphonates in aqueous buffer. We show here the interaction between amphipile (29a) and MePO3K2 using ^31P NMR, FIGS. 11A-D, which has been used as a probe for phosphate binding to several types of cations. […] This broadening effect is more pronounced as additional compound (29a) is added. The change in the shape of the peak is consistent with reduced tumbling associated with increased size or reversible association of compound (29a) with MePO3K2, which indicates complexation between the guanidinium species and the phosphonate group. […] Thus, guanidinium compound (29a) is not merely protonating the phosphonate in FIG. 11A. […] Urea is structurally similar to guanidinium and can potentially complex a phosphonate in a manner similar to compound (29a) (FIG. 10). In the presence of HCl, similar chemical behavior is expected when MePO3K2 is treated with urea as when it is treated with compound 29.

SMILES | change of the 31P signal of the phosphonate on addition (shift and broadening, in words) | 31P Chemical shift of MePO3K2 (MePO3K2 + 1 eq of additive) | 31P Half-Height Width of MePO3K2 (MePO3K2 + 1 eq of additive) | 31P Chemical shift of MePO3K2 (MePO3K2 + 4 eq of additive) | 31P Half-Height Width of MePO3K2 (MePO3K2 + 4 eq of additive) | 31P Chemical shift of MePO3K2 (MePO3K2 + 2 eq of additive) | 31P Half-Height Width of MePO3K2 (MePO3K2 + 2 eq of additive) | 31P Chemical shift of MePO3K2 (MePO3K2 + 3 eq of additive) | 31P Half-Height Width of MePO3K2 (MePO3K2 + 3 eq of additive) | 31P chemical shift of protonated MePO3H2 (in the presence of HCl, FIG. 11B, equivalents not given) | 31P Chemical shift of MePO3K2 (MePO3K2 + 1 eq urea + 2 eq HCl) | 31P Half-Height Width of MePO3K2 (MePO3K2 + 1 eq urea + 2 eq HCl) | 31P Chemical shift of MePO3K2 (MePO3K2 + 4 eq urea + 2 eq HCl) | 31P Half-Height Width of MePO3K2 (MePO3K2 + 4 eq urea + 2 eq HCl)
Cl.N [NH4Cl] | small downfield shift like HCl, but did not broaden the signal | 21.8 ppm | 3.6 Hz | 22.1 ppm | 4.2 Hz |  |  |  |  |  |  |  |  | 
Cl [HCl] | remains sharp and shifts downfield | 27.8 ppm | 3.8 Hz |  |  | 29.9 ppm | 3.4 Hz | 30.4 ppm | 3.4 Hz | 30.4 ppm |  |  |  | 
NC(N)=O [urea, Urea] | do not broaden |  |  |  |  |  |  |  |  |  | 27.6 ppm | 3.3 Hz | 27.7 ppm | 3.6 Hz
